Results from article PMC12624712 (ACS Infectious Diseases, 2025).
Like-named read-outs stand apart in the source and are kept apart here.

Assays:
RVFV strain ZH-548 = test: microbe, parasite or virus in culture; format: cell-based; details: for IC50: Rift Valley fever virus
in vitro = details: African green monkey
RVFV L protein = RVFV L protein (Rift valley fever virus, UniProt P27316); test: cell-based
[1] = Vero C1008, 72 h, read-out: IC50, cytopathic effect reduction assay
[2] = Vero C1008, read-out: IC50: 95% CI, CPE reduction assay

Chain of RVFV L protein (P27316 whole entry, looked up): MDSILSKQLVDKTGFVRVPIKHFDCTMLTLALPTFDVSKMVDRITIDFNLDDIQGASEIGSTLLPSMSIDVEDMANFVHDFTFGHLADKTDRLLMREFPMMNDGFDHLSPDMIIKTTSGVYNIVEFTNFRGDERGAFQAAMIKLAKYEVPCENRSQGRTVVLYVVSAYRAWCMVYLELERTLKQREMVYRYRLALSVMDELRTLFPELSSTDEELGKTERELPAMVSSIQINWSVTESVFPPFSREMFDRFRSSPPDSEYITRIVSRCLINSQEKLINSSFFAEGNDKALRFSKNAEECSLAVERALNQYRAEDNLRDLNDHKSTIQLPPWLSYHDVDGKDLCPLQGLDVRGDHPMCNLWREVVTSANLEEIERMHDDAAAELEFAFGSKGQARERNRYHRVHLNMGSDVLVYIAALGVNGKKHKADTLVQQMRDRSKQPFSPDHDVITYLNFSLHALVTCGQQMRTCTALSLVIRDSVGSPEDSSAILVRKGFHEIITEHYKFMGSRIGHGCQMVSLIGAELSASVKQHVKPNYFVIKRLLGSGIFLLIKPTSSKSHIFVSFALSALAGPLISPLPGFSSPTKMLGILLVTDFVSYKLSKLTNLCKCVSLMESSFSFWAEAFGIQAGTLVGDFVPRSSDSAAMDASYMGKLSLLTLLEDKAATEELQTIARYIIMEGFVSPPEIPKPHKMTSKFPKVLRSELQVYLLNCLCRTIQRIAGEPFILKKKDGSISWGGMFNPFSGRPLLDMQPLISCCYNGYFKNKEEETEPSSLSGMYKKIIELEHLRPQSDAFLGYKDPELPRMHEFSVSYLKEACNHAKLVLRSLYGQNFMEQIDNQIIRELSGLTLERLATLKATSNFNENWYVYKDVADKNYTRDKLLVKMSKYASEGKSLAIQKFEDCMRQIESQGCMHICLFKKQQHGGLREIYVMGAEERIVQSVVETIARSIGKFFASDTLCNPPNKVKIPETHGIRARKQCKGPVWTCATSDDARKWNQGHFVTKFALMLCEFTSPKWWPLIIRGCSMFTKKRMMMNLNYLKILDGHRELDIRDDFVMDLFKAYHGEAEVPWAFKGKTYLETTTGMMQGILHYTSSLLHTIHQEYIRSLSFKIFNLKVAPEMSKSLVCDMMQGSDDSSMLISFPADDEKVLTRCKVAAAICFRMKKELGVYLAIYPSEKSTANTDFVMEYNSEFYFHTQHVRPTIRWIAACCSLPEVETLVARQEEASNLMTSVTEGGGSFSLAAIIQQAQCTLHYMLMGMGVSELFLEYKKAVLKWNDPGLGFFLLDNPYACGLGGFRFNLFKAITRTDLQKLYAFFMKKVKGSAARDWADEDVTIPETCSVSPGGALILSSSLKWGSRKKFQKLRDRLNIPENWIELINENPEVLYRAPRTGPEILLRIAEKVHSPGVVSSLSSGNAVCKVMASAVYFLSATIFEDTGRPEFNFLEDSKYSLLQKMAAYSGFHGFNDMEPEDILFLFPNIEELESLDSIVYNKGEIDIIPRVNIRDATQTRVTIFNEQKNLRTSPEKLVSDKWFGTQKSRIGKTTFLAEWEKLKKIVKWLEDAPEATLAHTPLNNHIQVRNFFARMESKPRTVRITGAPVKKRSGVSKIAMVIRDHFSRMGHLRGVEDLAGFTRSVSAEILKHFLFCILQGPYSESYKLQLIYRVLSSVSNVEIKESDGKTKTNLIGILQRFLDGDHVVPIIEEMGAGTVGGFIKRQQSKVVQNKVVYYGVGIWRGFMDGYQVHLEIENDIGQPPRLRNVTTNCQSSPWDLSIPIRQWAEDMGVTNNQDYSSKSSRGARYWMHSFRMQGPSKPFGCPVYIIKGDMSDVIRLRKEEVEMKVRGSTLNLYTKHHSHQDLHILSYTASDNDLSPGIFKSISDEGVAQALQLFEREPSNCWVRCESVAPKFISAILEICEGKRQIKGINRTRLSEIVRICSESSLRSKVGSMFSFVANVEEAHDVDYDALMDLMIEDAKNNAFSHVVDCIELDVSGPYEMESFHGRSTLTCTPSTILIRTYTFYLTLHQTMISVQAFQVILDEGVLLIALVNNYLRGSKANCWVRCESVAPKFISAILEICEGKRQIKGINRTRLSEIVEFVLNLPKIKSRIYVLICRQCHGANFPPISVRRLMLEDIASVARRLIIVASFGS

## NC(=O)c1nccnc1O [T-1105]
RVFV strain ZH-548; [1]
  IC50: > 100 µM
In vitro
  CC50: > 100 µM

## 5'-azacytidine
VERO E6 cells
  CC50: > 100 µM

## CCCCCCCC/C=C/CCCCCCCC(=O)OC[C@H]1O[C@@H](n2ccc(N)nc2=O)C(F)(F)[C@@H]1O [Gemcitabine elaidate]
RVFV strain ZH-548; [1]
  IC50: > 100 µM
In vitro
  CC50: > 100 µM

## O=c1nc(NO)ccn1[C@@H]1O[C@H](CO)[C@@H](O)[C@H]1O [EIDD-1931]
RVFV strain ZH-548; [1]
  IC50: 2 ± 0.3 µM
RVFV strain ZH-548; [2]
  IC50: 1.5 to 2.8 µM
RVFV L protein
  IC50: 1.6 ± 0.2 µM
VERO E6 cells
  Cytotoxicity: nontoxic in selected concentration range
In vitro
  CC50: > 100 µM

## Nc1ncnc2c1ncn2[C@@H]1O[C@H](CO)[C@@H](O)[C@H]1F [2´-fluoro-2´-deoxyadenosine]
RVFV strain ZH-548; [1]
  IC50: > 100 µM
In vitro
  CC50: > 100 µM

## CC(C)OC(=O)[C@H](C)N[P@](=O)(CO[C@H](C)Cn1cnc2c(N)ncnc21)Oc1ccccc1 [Tenofovir Alafenamide]
RVFV strain ZH-548; [1]
  IC50: > 100 µM
In vitro
  CC50: > 100 µM

## Cc1cn([C@H]2C=C[C@@H](CO)O2)c(=O)[nH]c1=O [Stavudine]
RVFV strain ZH-548; [1]
  IC50: > 100 µM
In vitro
  CC50: > 100 µM

## NC(=O)c1ncn([C@@H]2O[C@H](CO)[C@@H](O)[C@H]2O)n1 [Ribavirin]
RVFV strain ZH-548; [1]
  IC50: 55 ± 9 µM
In vitro
  CC50: > 100 µM

## 5'-aza-2'-deoxycytidine [Decitabine]
VERO E6 cells
  CC50: > 100 µM

## C[C@@]1(F)[C@H](O)[C@@H](CO)O[C@H]1n1ccc(N)nc1=O [PSI-6130, 2'-deoxy-2'-fluoro-2'-C-methylcytidine]
RVFV strain ZH-548; [1]
  IC50: > 100 µM
In vitro
  CC50: > 100 µM

## CCC(CC)COC(=O)[C@H](C)N[P@](=O)(OC[C@H]1O[C@@](C#N)(c2ccc3c(N)ncnn23)[C@H](O)[C@@H]1O)Oc1ccccc1 [Remdesivir]
RVFV strain ZH-548
  Activity against RVFV in cell culture: no effect
RVFV strain ZH-548; [1]
  IC50: > 100 µM
In vitro
  CC50: > 100 µM

## 5'-fluoro-2'-deoxycytidine
VERO E6 cells
  CC50: > 100 µM

## O=C(Nc1ccn([C@@H]2O[C@H](CO)[C@@H](O)[C@H]2F)c(=O)n1)c1ccccc1 [N4-benzoyl-2'-fluoro-2'-deoxycytidine]
RVFV strain ZH-548; [1]
  IC50: 34 ± 4 µM
In vitro
  CC50: > 100 µM

## Nc1nc(=O)n([C@@H]2CS[C@H](CO)O2)cc1F [Emtricitabine]
RVFV strain ZH-548; [1]
  IC50: > 100 µM
In vitro
  CC50: > 100 µM

## Nc1ccn([C@@H]2O[C@H](CO)[C@@H](O)[C@H]2F)c(=O)n1 [2'-fluoro-2'-deoxycytidine]
RVFV strain ZH-548; [1]
  IC50: 3 ± 0.3 µM
RVFV strain ZH-548; [2]
  IC50: 2.4 to 3.9 µM
RVFV L protein
  IC50: 5.9 ± 1.1 µM
VERO E6 cells
  Cytotoxicity: nontoxic in selected concentration range
In vitro
  CC50: > 100 µM

## NC(=O)c1nc(F)c[nH]c1=O [Favipiravir]
RVFV strain ZH-548; [1]
  IC50: 37 ± 6 µM
In vitro
  CC50: > 100 µM

## CC(C)OC(=O)[C@H](C)N[P@](=O)(OC[C@H]1O[C@@H](n2ccc(=O)[nH]c2=O)[C@](C)(F)[C@@H]1O)Oc1ccccc1 [Sofosbuvir]
RVFV strain ZH-548
  Activity against RVFV in cell culture: lacked activity
RVFV strain ZH-548; [1]
  IC50: > 100 µM
In vitro
  CC50: > 100 µM

## O=c1ccn([C@@H]2O[C@H](CO)[C@@H](O)[C@H]2F)c(=O)[nH]1 [2´-fluoro-2´-deoxyuridine]
RVFV strain ZH-548; [1]
  IC50: > 100 µM
In vitro
  CC50: > 100 µM

## Nc1ccn([C@@H]2CS[C@H](CO)O2)c(=O)n1 [Lamivudine]
RVFV strain ZH-548; [1]
  IC50: > 100 µM
In vitro
  CC50: > 100 µM

## O=C(O)[C@H]1C2CCC(CC2)[C@@H]1Nc1nc(-c2c[nH]c3ncc(F)cc23)ncc1F [Pimodivir]
RVFV strain ZH-548; [1]
  IC50: > 100 µM
In vitro
  CC50: > 100 µM

## Cc1cn([C@H]2C[C@H](N=[N+]=[N-])[C@@H](CO)O2)c(=O)[nH]c1=O [Zidovudine]
RVFV strain ZH-548; [1]
  IC50: > 100 µM
In vitro
  CC50: > 100 µM

## Nc1ccn([C@@H]2O[C@H](CO)[C@@H](O)C2(F)F)c(=O)n1 [Gemcitabine, 2'-deoxy-2',2'-difluorocytidine]
RVFV strain ZH-548; [1]
  IC50: > 100 µM
In vitro
  CC50: > 100 µM

## Cc1cn([C@@H]2O[C@H](CO)[C@@H](O)[C@H]2F)c(=O)[nH]c1=O [2´-fluoro-2´-deoxythymidine]
RVFV strain ZH-548; [1]
  IC50: > 100 µM
In vitro
  CC50: > 100 µM

## Nc1ccn([C@@H]2O[C@H](CO)[C@@H](O)[C@@H]2O)c(=O)n1 [Cytarabine, Cytosine arabinoside]
RVFV strain ZH-548; [1]
  IC50: > 100 µM
In vitro
  CC50: > 100 µM

## Nc1ccn(C[C@@H](CO)OCP(=O)(O)O)c(=O)n1 [Cidofovir]
RVFV strain ZH-548
  Activity against RVFV in cell culture: no effect
RVFV strain ZH-548; [1]
  IC50: > 100 µM
In vitro
  CC50: > 100 µM

## CC(C)C(=O)OC[C@H]1O[C@@H](n2ccc(NO)nc2=O)[C@H](O)[C@@H]1O [Molnupiravir]
RVFV strain ZH-548; [1]
  IC50: 27 ± 4 µM
In vitro
  CC50: > 100 µM

## CCCC(CCC)C(=O)Nc1ccn([C@@H]2O[C@H](CO)[C@@H](O)C2(F)F)c(=O)n1 [LY-2334737]
RVFV strain ZH-548; [1]
  IC50: > 100 µM
In vitro
  CC50: > 100 µM

## CC(=O)Nc1ccn([C@@H]2O[C@H](CO)[C@@H](O)[C@H]2F)c(=O)n1 [N4-acetyl-2'-fluoro-2'-deoxycytidine]
RVFV strain ZH-548; [1]
  IC50: 20 ± 3 µM
In vitro
  CC50: > 100 µM

## O=c1ccn([C@@H]2C=C(CO)[C@@H](O)[C@H]2O)c(=O)[nH]1 [Cyclopentenyluracil]
RVFV strain ZH-548; [1]
  IC50: > 100 µM
In vitro
  CC50: > 100 µM

## COc1c(-c2ccc3cc(NS(C)(=O)=O)ccc3c2)cc(-n2ccc(=O)[nH]c2=O)cc1C(C)(C)C [Dasabuvir]
RVFV strain ZH-548
  Activity against RVFV in cell culture: lacked activity
RVFV strain ZH-548; [1]
  IC50: > 100 µM
In vitro
  CC50: 26 ± 7 µM

## Nc1ccn([C@@H]2C=C(CO)[C@@H](O)[C@H]2O)c(=O)n1 [Cyclopentenylcytosine]
RVFV strain ZH-548; [1]
  IC50: > 100 µM
In vitro
  CC50: > 100 µM

## Nc1nc2c(ncn2[C@@H]2O[C@H](CO)[C@@H](O)[C@H]2F)c(=O)[nH]1 [2´-fluoro-2´-deoxyguanosine]
RVFV strain ZH-548; [1]
  IC50: 23 ± 3 µM
In vitro
  CC50: > 100 µM

## COC(=O)OCOc1c2n(ccc1=O)N([C@@H]1c3ccccc3SCc3c1ccc(F)c3F)[C@@H]1COCCN1C2=O [Baloxavir Marboxil]
RVFV strain ZH-548; [1]
  IC50: > 100 µM
In vitro
  CC50: > 100 µM
